Measured values reported in patent US10112907B2, “Substituted indazoles for treating tendon and/or ligament injuries” (NOVARTIS AG, priority 2016, dated 2018).

Tested on: Scleraxis (Scx) gene transcriptional activation in TT-D6 Scx-luciferase (ScxL) cell line
Test: SCX-LUC in vitro assay (Scx-luciferase reporter)
Format: cell-based
Conditions: Mus musculus, 96 h; Table 3; four days; read-out: Scx-Luc (EC50 μM)

Row | EC50 [µM] | SMILES
1 | 1.33 | COc1c(-c2ccc(S(=O)(=O)N3CC(F)(F)C[C@H]3CO)cc2F)ccc2[nH]nc(N)c12 [Example 41, (S)-(1-((4-(3-amino-4-methoxy-1H-indazol-5-yl)-3-fluorophenyl)sulfonyl)-4,4-difluoropyrrolidin-2-yl)methanol]
2 | 0.535 | Nc1n[nH]c2ccc(-c3ccc(S(=O)(=O)NC4CC(F)(F)C4)cc3Cl)c(Cl)c12 [Example 67, 4-(3-amino-4-chloro-1H-indazol-5-yl)-3-chloro-N-(3,3-difluorocyclobutyl)benzenesulfonamide]
3 | 1.86 | Cc1c(-c2ccc(S(=O)(=O)NC3CC(F)(F)C3)cc2Cl)ccc2[nH]nc(N)c12 [Example 68, 4-(3-amino-4-methyl-1H-indazol-5-yl)-3-chloro-N-(3,3-difluorocyclobutyl)benzenesulfonamide]
4 | 0.879 | Cc1cc(S(=O)(=O)N2CC(C#N)C2)ccc1-c1ccc2[nH]nc(N)c2c1C [Example 22, 1-((4-(3-amino-4-methyl-1H-indazol-5-yl)-3-methylphenyl)sulfonyl)azetidine-3-carbonitrile]
5 | 0.359 | Cc1cc(S(=O)(=O)N[C@@H]2CCC[C@@H]2O)ccc1-c1ccc2[nH]nc(N)c2c1F [Example 75, 4-(3-amino-4-fluoro-1H-indazol-5-yl)-N-((1R,2S)-2-hydroxycyclopentyl)-3-methylbenzenesulfonamide]
6 | 2.83 | Cc1c(-c2ccc(S(=O)(=O)N3CCC(O)C3)cc2F)ccc2[nH]nc(N)c12 (centres unmarked) [Example 3, 1-((4-(3-amino-4-methyl-1H-indazol-5-yl)-3-fluorophenyl)sulfonyl)pyrrolidin-3-ol]
7 | 1.35 | Cc1cc(S(=O)(=O)N[C@H]2CC[C@@H](C#N)CC2)ccc1-c1ccc2[nH]nc(N)c2c1C [Example 27, 4-(3-amino-4-methyl-1H-indazol-5-yl)-N-((1s,4s)-4-cyanocyclohexyl)-3-methylbenzenesulfonamide]
8 | 0.723 | Cc1cc(S(=O)(=O)N2CCC[C@@H]2CO)ccc1-c1ccc2[nH]nc(N)c2c1C [Example 20, (R)-(1-((4-(3-amino-4-methyl-1H-indazol-5-yl)-3-methylphenyl)sulfonyl)pyrrolidin-2-yl)methanol]
9 | 1.22 | COc1c(-c2ccc(S(=O)(=O)N[C@H]3C[C@](O)(C(F)(F)F)C3)cc2Cl)ccc2[nH]nc(N)c12 [Example 65, 4-(3-amino-4-methoxy-1H-indazol-5-yl)-3-chloro-N-((1s,3s)-3-hydroxy-3-(trifluoromethyl)cyclobutyl)benzenesulfonamide]
10 | 1.05 | Nc1n[nH]c2ccc(-c3ccc(S(=O)(=O)N4CC(F)(F)C[C@H]4CO)cc3Cl)c(F)c12 [Example 46, (S)-(1-((4-(3-amino-4-fluoro-1H-indazol-5-yl)-3-chlorophenyl)sulfonyl)-4,4-difluoropyrrolidin-2-yl)methanol]
11 | 0.606 | Cc1cc(S(=O)(=O)NC2CCCC(O)C2)ccc1-c1ccc2[nH]nc(N)c2c1C (centres unmarked) [Example 25, 4-(3-amino-4-methyl-1H-indazol-5-yl)-N-(3-hydroxycyclohexyl)-3-methylbenzenesulfonamide]
12 | 0.764 | Cc1c(-c2ccc(S(=O)(=O)N3CC(F)(F)C[C@H]3CO)cc2Cl)ccc2[nH]nc(N)c12 [Example 56, (S)-(1-((4-(3-amino-4-methyl-1H-indazol-5-yl)-3-chlorophenyl)sulfonyl)-4,4-difluoropyrrolidin-2-yl)methanol]
13 | 1.69 | Cc1cc(S(=O)(=O)N(C)[C@@H]2CCC[C@@H]2O)ccc1-c1ccc2[nH]nc(N)c2c1C [Example 84, 4-(3-amino-4-methyl-1H-indazol-5-yl)-N-((1R,2S)-2-hydroxycyclopentyl)-N,3-dimethylbenzenesulfonamide]
14 | 3.6 | Nc1n[nH]c2ccc(-c3ccc(S(=O)(=O)N4CC[C@@H](O)C4)cc3Cl)c(Cl)c12 [Example 8, (R)-1-((4-(3-amino-4-chloro-1H-indazol-5-yl)-3-chlorophenyl)sulfonyl)pyrrolidin-3-ol]
